Square brackets hold non-standard residues; d marks the D form. Peptide text beside a SMILES is read from it. * marks the point of attachment. F2Pmp = N[C@@H](Cc1ccc(C(F)(F)P(=O)(O)O)cc1)C(=O)O; Phe(4-COOH) = N[C@@H](Cc1ccc(C(=O)O)cc1)C(=O)O; Fmoc = O=C(OCC1c2ccccc2-c2ccccc21)*
Columns and labels:
[1] = target: T1, Fe(3+)-Zn(2+) purple acid phosphatase (Phaseolus vulgaris, UniProt P80366); test: Inhibition of red kidney beans purple acid phosphatase
T1 sequence (P80366 whole entry): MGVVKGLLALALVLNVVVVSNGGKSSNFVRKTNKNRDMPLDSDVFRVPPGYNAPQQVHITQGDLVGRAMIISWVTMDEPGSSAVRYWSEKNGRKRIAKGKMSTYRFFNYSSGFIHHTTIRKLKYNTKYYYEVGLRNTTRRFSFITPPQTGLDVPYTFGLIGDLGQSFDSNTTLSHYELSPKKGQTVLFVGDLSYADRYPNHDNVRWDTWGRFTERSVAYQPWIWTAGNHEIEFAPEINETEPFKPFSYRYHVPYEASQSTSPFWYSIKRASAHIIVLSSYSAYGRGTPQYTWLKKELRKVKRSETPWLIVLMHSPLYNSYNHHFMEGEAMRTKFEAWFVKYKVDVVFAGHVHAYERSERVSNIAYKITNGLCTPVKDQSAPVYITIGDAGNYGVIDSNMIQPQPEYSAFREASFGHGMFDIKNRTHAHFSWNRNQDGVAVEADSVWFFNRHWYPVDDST

Arginase-1 = target: T2, Arginase-1 (Rattus norvegicus, UniProt P07824); test: Inhibition of rat liver arginase
T2 sequence (P07824 whole entry): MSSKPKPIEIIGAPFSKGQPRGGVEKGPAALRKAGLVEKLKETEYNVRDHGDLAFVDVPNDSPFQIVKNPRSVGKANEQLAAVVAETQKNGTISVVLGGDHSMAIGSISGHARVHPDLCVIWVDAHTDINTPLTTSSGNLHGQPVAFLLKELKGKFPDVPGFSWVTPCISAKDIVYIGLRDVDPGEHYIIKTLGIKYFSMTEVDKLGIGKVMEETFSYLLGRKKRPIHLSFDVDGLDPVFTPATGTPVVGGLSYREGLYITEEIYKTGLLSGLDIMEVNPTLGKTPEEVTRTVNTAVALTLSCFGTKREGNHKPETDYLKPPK

[2] = Inhibition of mouse macrophage arginase
[3] = Inhibition of metallo-beta-lactamase IMP-1 (unknown origin)
[4] = Inhibition of pig purple acid phosphatase at pH 3.3; design: species or system Sus scrofa
[5] = Inhibition of pig purple acid phosphatase at pH 4.9; design: species or system Sus scrofa
[6] = Inhibition of metallo-beta-lactamase IMP-1 (unknown origin) using nitrocefin as substrate incubated for 15 mins prior to substrate addition
[7] = Inhibition of metallo-beta-lactamase BcII (unknown origin)
[8] = Inhibition of metallo-beta-lactamase VIM2 (unknown origin)
[9] = Inhibition of metallo-beta-lactamase L1 (unknown origin)
[10] = Inhibition of metallo-beta-lactamase CphA (unknown origin)
[11] = Inhibition of human purple acid phosphatase
[12] = Inhibition of human recombinant purple acid phosphatase at pH 3.3
[13] = Inhibition of human recombinant purple acid phosphatase at pH 4.9
[14] = Inhibition of arginase (unknown origin); design: species or system Homo sapiens
[15] = Inhibition of Bacillus cereus 5/B/6 metallo-beta-lactamase […] incubated for 1 min prior to substrate addition by spectrophotometry
[16] = Inhibition of Bacillus cereus metallo-beta-lactamase BcII
Beta-lactamase L1 = Beta-lactamase L1 (Stenotrophomonas maltophilia, UniProt P52700); test: Inhibition of Stenotrophomonas maltophilia metallo-beta-lactamase L1 after 5 mins
[17] = Inhibition of Plasmodium berghei arginase
[18] = Inhibition of human arginase
[19] = Inhibition of metallo-beta-lactamase CcrA (unknown origin)
[20] = target: Metallo-beta-lactamase type 2 (Bacteroides fragilis, UniProt P25910); test: Competitive inhibition of Bacteroides fragilis metallo-beta-lactamase CcrA
[21] = Competitive inhibition of Bacillus cereus 569/H metallo-beta-lactamase BcII by Eadie-Hofstee plot analysis

Sequence of Beta-lactamase L1 (P52700 whole entry): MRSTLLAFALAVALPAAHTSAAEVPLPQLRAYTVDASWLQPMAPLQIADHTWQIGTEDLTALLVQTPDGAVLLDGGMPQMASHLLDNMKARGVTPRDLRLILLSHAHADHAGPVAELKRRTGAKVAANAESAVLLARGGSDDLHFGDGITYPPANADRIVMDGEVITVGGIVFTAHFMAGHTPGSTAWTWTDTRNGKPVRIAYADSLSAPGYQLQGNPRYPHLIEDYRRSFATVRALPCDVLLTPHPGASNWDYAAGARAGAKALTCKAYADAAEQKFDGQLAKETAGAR
Sequence of Metallo-beta-lactamase type 2 (P25910 whole entry): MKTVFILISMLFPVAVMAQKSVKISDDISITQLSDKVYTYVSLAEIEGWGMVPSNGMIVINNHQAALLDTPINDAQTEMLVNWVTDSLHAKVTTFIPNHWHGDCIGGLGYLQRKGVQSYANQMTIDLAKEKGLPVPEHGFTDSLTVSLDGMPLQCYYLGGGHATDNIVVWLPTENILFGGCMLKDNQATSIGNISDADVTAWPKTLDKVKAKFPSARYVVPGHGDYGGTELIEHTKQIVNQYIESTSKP

Question: For `O=P(O)(O)CCS`, which IC50 [1] is on record?
Answer: 3000 µM

Question: Which results are given for `N=C(NO)NCC[C@H](N)C(=O)O` [NOR-NOHA]?
Answer: IC50 (Arginase-1): 2 µM; IC50 [2]: 50 µM

Question: For `O[C@H](CS)[C@H](O)CS`, which INH [3] is on record?
Answer: 0.55 µM

Question: What does the source list for `C[C@H](NC(=O)[C@H](Cc1ccc(C(F)(C(=O)O)C(=O)O)cc1)NC(=O)[C@H](CCC(=O)O)NC(=O)OCC1c2ccccc2-c2ccccc21)C(N)=O`?
Answer: Ki [4]: 8 µM; Ki [5]: 49 µM

Question: With `O=P(O)(O)c1ccccc1S` as the compound, how does the IC50 [1] read?
Answer: 350 µM

Question: For `O=P(O)(O)CS`, which IC50 [1] is on record?
Answer: 80 µM

Question: With `O=C(O)[C@@H](Cc1ccc2c(c1)OCO2)[C@H](Cc1ccc2c(c1)OCO2)C(=O)O` as the compound, how does the IC50 [6] read?
Answer: 0.009 µM

Question: What does the source list for `CC(=O)Oc1cc(C[C@H](NC(=O)[C@H](CCC(=O)O)NC(=O)OCC2c3ccccc3-c3ccccc32)C(=O)N[C@@H](C)C(N)=O)ccc1OCC(=O)O`?
Answer: Ki [4]: 413 µM; Ki [5]: 777 µM

Question: For `O=C(COc1ccccc1)NC(Cc1ccccc1)C(=O)C(F)(F)F` (stereo unspecified), which Ki [7] is on record?
Answer: 1.5 µM

Question: What about the Ki [8] of the same compound?
Answer: 1.5 µM

Question: And the Ki [9]?
Answer: 1.5 µM

Question: What about the Ki [10] of the same compound?
Answer: 1.5 µM

Question: With `O=P(O)(O)C(Cc1ccc(-c2ccccc2)cc1)c1cccc2ccccc12` (stereo unspecified) as the compound, how does the IC50 ([11]; read-out: IC50) read?
Answer: 6.3 µM

Question: With `OCCCS` as the compound, how does the INH [3] read?
Answer: 2.5 µM

Question: With `C[C@H](NC(=O)[C@H](Cc1ccc(OC(F)(C(=O)O)C(=O)O)cc1)NC(=O)[C@H](CCC(=O)O)NC(=O)OCC1c2ccccc2-c2ccccc21)C(=O)O` as the compound, how does the Ki [12] read?
Answer: 36 µM

Question: What about the Ki [13] of the same compound?
Answer: 74 µM

Question: With `C[C@H](NC(=O)[C@H](Cc1ccc(OCC(=O)O)c(C(=O)O)c1)NC(=O)[C@H](CCC(=O)O)NC(=O)OCC1c2ccccc2-c2ccccc21)C(N)=O` as the compound, how does the Ki [4] read?
Answer: 112 µM

Question: What about the Ki [5] of the same compound?
Answer: 146 µM

Question: Which Ki [14] does the source give for `NNC(N)=S` [THIOSEMICARBAZIDE] here?
Answer: 100 µM

Question: Which results are given for `C[C@H](NC(=O)[C@H](Cc1ccc(C(C(=O)O)C(=O)O)cc1)NC(=O)[C@H](CCC(=O)O)NC(=O)OCC1c2ccccc2-c2ccccc21)C(N)=O`?
Answer: Ki [4]: 6 µM; Ki [5]: 38 µM

Question: What does the source list for `O=C(O)c1cccc(C(=O)O)n1` [DIPICOLINIC ACID]?
Answer: IC50 [7]: 21.8 µM; IC50 [9]: 7.8 µM

Question: Which INH [3] does the source give for `CC(S)C(=O)O` (stereo unspecified) here?
Answer: 0.19 µM

Question: Which IC50 [3] does the source give for `O=S(=O)(N/N=C/c1c2ccccc2cc2ccccc12)c1ccc2ccccc2c1` here?
Answer: 1.6 µM

Question: And the Ki [15]?
Answer: 0.02 µM

Question: For `O=P(O)(O)Cc1cccc2ccccc12`, which IC50 ([11]; read-out: IC50) is on record?
Answer: 30 µM

Question: What does the source list for `C[C@H](NC(=O)[C@H](Cc1ccc(OC(C(=O)O)C(=O)O)cc1)NC(=O)[C@H](CCC(=O)O)NC(=O)OCC1c2ccccc2-c2ccccc21)C(=O)O`?
Answer: Ki [12]: 14 µM; Ki [13]: 26 µM

Question: Which IC50 [16] does the source give for `SCc1ccccc1` [BENZENEMETHANETHIOL] here?
Answer: 9.2 µM

Question: With `CCOC(=O)CCS` as the compound, how does the INH [3] read?
Answer: 0.25 µM

Question: For `COC(=O)c1cc(SCC(NC(C)=O)C(=O)OC)cc2nc3c(C(=O)O)cccc3nc12` (stereo unspecified), which IC50 (Beta-lactamase L1) is on record?
Answer: 1 µM

Question: With `O=C(COc1ccccc1)NC(Cc1ccccc1)C(O)C(F)(F)F` (stereo unspecified) as the compound, how does the Ki [7] read?
Answer: 1.5 µM

Question: What about the Ki [8] of the same compound?
Answer: 1.5 µM

Question: And the Ki [9]?
Answer: 1.5 µM

Question: What about the Ki [10] of the same compound?
Answer: 1.5 µM

Question: Which Ki [17] does the source give for `N[C@@H](CCCC[N+](=O)[O-])C(=O)O` here?
Answer: 11 µM

Question: What about the Ki [18] of the same compound?
Answer: 60 µM

Question: Which Ki [16] does the source give for `COc1ccc(C(S)C(=O)O)cc1` (stereo unspecified) here?
Answer: 0.09 µM

Question: With `O=C(O)C(S)c1ccccc1` (stereo unspecified) as the compound, how does the Ki [16] read?
Answer: 0.09 µM

Question: For `C[C@H](NC(=O)[C@H](Cc1ccc(C(F)(F)P(=O)(O)O)cc1)NC(=O)[C@H](CCC(=O)O)NC(=O)OCC1c2ccccc2-c2ccccc21)C(=O)O` (Fmoc-Glu-[F2Pmp]-Ala-OH), which Ki [12] is on record?
Answer: 67 µM

Question: And the Ki [13]?
Answer: 63 µM

Question: With `O=C(c1ccccc1)C(C(=O)c1ccccc1)(c1cccc2ccccc12)P(=O)(O)O` as the compound, how does the IC50 ([11]; read-out: IC50) read?
Answer: 1.4 µM

Question: What does the source list for `COC1OC(C)=Cc2oc3cc(O)c(O)c(C(=O)O)c3c(=O)c21` (stereo unspecified)?
Answer: Ki [7]: 79 µM; Ki [3]: 17 µM; Ki [19]: 3.4 µM

Question: With `c1ccc(-c2nnn[nH]2)c(-c2ccc(Cn3c4ccccc4c4ccccc43)cc2)c1` as the compound, how does the IC50 [20] read?
Answer: 0.3 µM

Question: Which results are given for `C[C@H](NC(=O)[C@H](Cc1ccc(C(=O)O)cc1)NC(=O)[C@H](CCC(=O)O)NC(=O)OCC1c2ccccc2-c2ccccc21)C(N)=O` (Fmoc-Glu-[Phe(4-COOH)]-Ala-NH2)?
Answer: Ki [4]: 100 µM; Ki [5]: 161 µM

Question: Which results are given for `C[C@H](NC(=O)[C@H](Cc1ccc(CC(=O)O)c(C(=O)O)c1)NC(=O)[C@H](CCC(=O)O)NC(=O)OCC1c2ccccc2-c2ccccc21)C(N)=O`?
Answer: Ki [4]: 201 µM; Ki [5]: 279 µM

Question: With `O=P(O)(O)CP(=O)(O)O` [MEDRONIC ACID] as the compound, how does the Ki [1] read?
Answer: 140 µM

Question: With `CC(NC(=O)COc1ccccc1)C(=O)C(F)(F)F` (stereo unspecified) as the compound, how does the Ki [7] read?
Answer: 1.5 µM

Question: What about the Ki [8] of the same compound?
Answer: 1.5 µM

Question: And the Ki [9]?
Answer: 1.5 µM

Question: And the Ki [10]?
Answer: 1.5 µM

Question: Which INH [3] does the source give for `O=C(O)CS` here?
Answer: 0.23 µM

Question: With `OCCS` as the compound, how does the INH [3] read?
Answer: 12 µM

Question: Which IC50 [11] does the source give for `O=P(O)(O)C(O)c1cccc2ccccc12` (stereo unspecified) here?
Answer: Not Active

Question: With `O=C(O)CP(=O)(O)O` [FOSFONET] as the compound, how does the Ki [1] read?
Answer: 590 µM

Question: For `O=C(O)CCP(=O)(O)O`, which Ki [1] is on record?
Answer: 160 µM

Question: Which IC50 (Beta-lactamase L1) does the source give for `COC(=O)c1c(O)ccc2nc3c(C(=O)O)cccc3nc12` here?
Answer: 1 µM

Question: For `CC(=O)N[C@H]1[C@H](O[C@H]2C[C@@H](C(=O)NCCS(=O)(=O)O)N[C@@H]2CO)O[C@H](CO)[C@@H](OS(=O)(=O)O)[C@@H]1O` [BULGECIN A], which IC50 [21] is on record?
Answer: 230 µM

Question: With `CCOC(=O)CS` as the compound, how does the INH [3] read?
Answer: 1.4 µM

Question: With `O=C(O)c1ccccc1S` [THIOSALICYLIC ACID] as the compound, how does the Ki [16] read?
Answer: 9.2 µM

Question: With `O=P(O)(O)CCCS` as the compound, how does the IC50 [1] read?
Answer: 160 µM

Question: Which Ki [16] does the source give for `O=C(O)C(S)c1ccc(F)cc1` (stereo unspecified) here?
Answer: 0.09 µM

Question: With `CC(NC(=O)COc1ccccc1)C(O)C(F)(F)F` (stereo unspecified) as the compound, how does the Ki [7] read?
Answer: 1.5 µM

Question: And the Ki [8]?
Answer: 1.5 µM

Question: And the Ki [9]?
Answer: 1.5 µM

Question: What about the Ki [10] of the same compound?
Answer: 1.5 µM

Question: For `O[C@H](CS)[C@@H](O)CS`, which INH [3] is on record?
Answer: 2.2 µM

Question: For `O=C(O)CCS`, which INH [3] is on record?
Answer: 1.2 µM

— ChEMBL document CHEMBL3232874, “The applications of binuclear metallohydrolases in medicine: recent advances in the design and development of novel drug leads for purple acid phosphatases, metallo-β-lactamases and arginases” (Eur J Med Chem, 2014)
